Laboratory results published in publication PMC3630091, “A Mechanistic Paradigm for Broad-Spectrum Antivirals that Target Virus-Cell Fusion” (PLoS Pathogens, 2013).
Like-named read-outs stand apart in the source and are kept apart here.

Experiments:
HIV = assay: microbe, parasite or virus in culture; type: cell-based; settings: Human immunodeficiency virus 1, 10 min
NDV = assay: microbe, parasite or virus in culture; type: cell-based, Newcastle disease virus; settings: avian paramyxovirus 1, 10 min
EBOV = assay: microbe, parasite or virus in culture; type: cell-based, Ebola Zaire; settings: Zaire ebolavirus, 10 min, read-out: IC50 EBOV
H1N1 = assay: microbe, parasite or virus in culture; type: cell-based, Influenza A A/PR/8/34 (H1N1); settings: read-out: IC50 H1N1
NiV = assay: microbe, parasite or virus in culture; type: cell-based, Nipah virus Malaysia
HeV = assay: microbe, parasite or virus in culture; type: cell-based, Hendra virus; settings: Henipavirus hendraense, 10 min, read-out: IC50 HeV
RVFV = assay: microbe, parasite or virus in culture; type: cell-based, Rift Valley fever MP-12 (vaccine strain); settings: Rift Valley fever virus, 10 min, read-out: IC50 RVFV
SFV = assay: microbe, parasite or virus in culture; type: cell-based; settings: Semliki Forest virus, BHK, 10 min, read-out: IC50 SFV
HSV = assay: microbe, parasite or virus in culture; type: cell-based, Herpes simplex virus-1; settings: Human alphaherpesvirus 1, 10 min
CMV = assay: microbe, parasite or virus in culture; type: cell-based, Cytomegalovirus (strain T3259); settings: Human betaherpesvirus 5, 10 min, read-out: IC50 CMV, 10 min white light exposure of treated virus
VSV = assay: microbe, parasite or virus in culture; type: cell-based; settings: Vesicular stomatitis virus, 10 min, read-out: IC50 VSV
RABV = assay: microbe, parasite or virus in culture; type: cell-based; settings: Lyssavirus rabies, 10 min, read-out: IC50 RABV
[1] = Acrylamide quenching in POPC vesicles; type: physicochemical; settings: >50-fold molar excess of lipid; 3 mM POPC vesicles
[2] = Absorbance spectra / UV-visible spectra integration; type: physicochemical; settings: for Abs Max (λmax): 100 µM in DMSO; for AUC (400-750 nm): integrated absorption divided by concentration, normalized relative to LJ001 (LJ001 = 100)
[3] = Singlet oxygen quantum yield measurements; type: physicochemical; settings: error is one standard deviation; for 1O2 QY 355 nm: in CD2Cl2, excitation 355 nm; for 1O2 QY 532 nm: in CD2Cl2, excitation 532 nm
[4] = Singlet oxygen quenching measurements; type: physicochemical; settings: 355 nm with C60 as external sensitizer; error is one standard deviation
[5] = tested on: influenza virus A (A/PR/8/34 H1N1); settings: 5 µM, light 1 h
[6] = Clinical observations after single dose in PK study; type: in vivo, female Balb/c mice
Method: Dose administration. […] These mice were replaced and the dose level was reduced to 5 mg/kg. […] Hypoactivity was the only clinical observation noted in some of the mice treated with the 3 test articles at 10 and 100 mg/kg po. […] These animals were replaced and administered with the lower ip dose level of 1.25 mg/kg and underwent blood collections. Mice received single ip doses of 1.25 mg/kg (JL109 and JL118) or 5 mg/kg (JL122) and po doses of 10 mg/kg (JL109, JL118, JL122), 50 mg/kg (JL109, JL118), or 100 mg/kg (JL109, JL118, JL122).

[7] = tested on: VSV-ΔG-rluc pseudotyped with NiV envelope glycoproteins, F and G
enveloped viruses [8] = tested on: enveloped viruses; set-up: method as in PMID 20133606; settings: non-cytotoxic concentrations; read-out: IC50, entry of numerous enveloped viruses; cited from earlier work
in vitro = settings: human
Pharmacokinetics in mice = settings: for AUC(0-t) / Cmax: po
[9] = Membrane partition into POPC LUV (fluorescence); settings: for IL / Iw: POPC LUV, fluorescence intensity ratio from curve fitting
[10] = Membrane partition into HIV membrane-like mixture LUV (fluorescence); settings: for IL / Iw: HIV-like mixture LUV, fluorescence intensity ratio from curve fitting
[11] = reference sensitizer value; cited from earlier work
HIV-1JR-CSF = type: cell-based
RVFV ZH501 = type: in vivo, Balb/c mice; settings: 20 pfu RVFV ZH501 IP; IP once a day for 7 days from 1 h post-challenge; JL118 1.25 mg/kg, JL122 and JL103 10 mg/kg
enveloped viruses [12] = type: cell-based
[13] = read-out: IC50 ± SD (nM) (N=x) HIV
[14] = read-out: IC50 ± SD (nM) (N=x) NDV
[15] = read-out: IC50 ± SD (nM) (N=x) HSV
[16] = single dose 2.5 mg/kg ip, about 15 min post administration
[17] = female, Balb/c, mouse, in vivo, 10 mg/kg
[18] = female, Balb/c, mouse, in vivo, 50 mg/kg
[19] = female, Balb/c, mouse, in vivo, 100 mg/kg

C=CCN1C(=O)/C(=C/c2ccc(-c3ccccc3)o2)SC1=S [LJ001, (Z)-3-allyl-5-((5-phenylfuran-2-yl)methylene)-2-thioxothiazolidin-4-one]
IC50 (HIV; read-out: IC50 HIV): 133 nM
IC50 (HIV; [13]): 182 ± 244 nM
IC50 (NDV; read-out: IC50 NDV): 95 nM
IC50 (NDV; [14]): 181 ± 105 nM
IC50 (EBOV): 900 nM
IC50 (H1N1; Influenza A virus, H1N1, 10 min): 25.7 nM
IC50 (H1N1): 26 nM
IC50 (NiV; Henipavirus nipahense, 10 min, read-out: IC50 NiV, 10 min white light exposure of treated virus): 47.5 nM
IC50 (NiV; read-out: IC50 NiV, 10 min white light exposure of treated virus): 48 nM
IC50 (HeV): 18 nM
IC50 (RVFV): 20 nM
IC50 (SFV): 537 nM
IC50 (HSV; read-out: IC50 HSV): 20 nM
IC50 (HSV; [15]): 35.3 ± 48.3 nM
IC50 (CMV): 147 nM
IC50 (VSV): 298 nM
IC50 (RABV): 5290 nM
fraction protected from the water-soluble quencher (acrylamide) [1]: over 85%
Abs Max (λmax) [2]: 455 nm
AUC (400-750 nm) [2]: 100
1O2 QY 355 nm [3]: 0.20 ± 0.02
1O2 QY 532 nm [3]: 0
kT × 10-7 [4]: 0.189 ± 0.010 M-1s-1
increase in the number of oxidized forms of unsaturated phospholipids compared to LJ025-treated samples [5]: up to 300 fold
clinical observations ([6]; single dose 5 mg/kg ip): appeared normal
clinical observations ([6]; single dose 10 mg/kg ip): 2 were sacrificed in moribund condition and 1 was found dead
t1/2 (inhibition half-life, time-of-addition) [7]: 1.12 h
IC50 (enveloped viruses [8]): ≤ 500 nM
CC50 (in vitro): 11900 nM
clearance (Pharmacokinetics in mice; female, Balb/c, mouse, in vivo): ~700 mL/min/kg
half-life (Pharmacokinetics in mice; female, Balb/c, mouse, in vivo): 0.2 h
time post-dose up to which plasma levels were detectable (Pharmacokinetics in mice; ip 5 mg/kg): ≤ 0.5 h
time post-dose up to which plasma levels were detectable (Pharmacokinetics in mice; iv 10 mg/kg): up to 1 hr
IL / Iw [9]: 2.29
Kp at 10 min, 50 µM [10]: 5190
IL / Iw [10]: 2.41

C=CCN1C(=O)S/C(=C\c2ccc(-c3ccccc3)o2)C1=O [LJ025, (Z)-3-allyl-5-((5-phenylfuran-2-yl)methylene)thiazolidine-2,4-dione]
fraction protected from the water-soluble quencher (acrylamide) [1]: over 85%
Abs Max (λmax) [2]: 405 nm
AUC (400-750 nm) [2]: < 100
1O2 QY 355 nm [3]: 0
kT × 10-7 [4]: 0.191 ± 0.010 M-1s-1
melting point: 149 to 151 °C
CC50 (in vitro): > 50000 nM
IL / Iw [9]: 2.79
IL / Iw [10]: 3.60

C1=Cc2nc1c(-c1ccccc1)c1ccc([nH]1)c(-c1ccccc1)c1nc(c(-c3ccccc3)c3ccc([nH]3)c2-c2ccccc2)C=C1 [TPP]
1O2 QY of reference compound at 532 nm [11]: 0.62

CCN1C(=S)O/C(=C\c2ccc(-c3ccc(N(C)C)cc3)o2)C1=S [JL118, (Z)-5-((5-(4-(dimethylamino)phenyl)furan-2-yl)methylene)-3-ethyloxazolidine-2,4-dithione]
IC50 (HIV; [13]): 11.7 ± 5.5 nM
IC50 (NDV; [14]): 2.1 ± 1.4 nM
IC50 (HSV; [15]): 10.1 ± 8.6 nM
Abs Max (λmax) [2]: 610 nm
AUC (400-750 nm) [2]: 200
total integrated absorption (AUC), times that of LJ001 ([2]; λ = 400 to 750 nm): 2 times
1O2 QY 355 nm [3]: 0.14 ± 0.01
1O2 QY 532 nm [3]: 0.15 ± 0.02
kT × 10-7 [4]: 4.600 ± 0.300 M-1s-1
antiviral potency at physiological hematocrits (HIV-1JR-CSF): maintained their antiviral potency
time-to-death / survival compared to untreated controls (RVFV ZH501): moderate but significant delay in time-to-death
clinical observations [6, 16]: deaths occurred in the initial 3 animals
improved in vitro potency compared to LJ001 (enveloped viruses [12]): 10-100 fold
CC50 (in vitro): 37000 nM
MRT last (Pharmacokinetics in mice; female, Balb/c, mouse, in vivo): 5.3 to 11.4 h
Tmax (Pharmacokinetics in mice; female, Balb/c, mouse, in vivo): 0.25 to 1 h
AUC(0-t) (Pharmacokinetics in mice; [17]): 1350 ng·h/mL
AUC(0-t) (Pharmacokinetics in mice; [18]): 841 ng·h/mL
AUC(0-t) (Pharmacokinetics in mice; [19]): 1160 ng·h/mL
improvements in relevant pharmacokinetic (PK) parameters compared to LJ001 (Pharmacokinetics in mice; half-life, AUC, bioavailability, clearance): > 10 fold
Kp at 10 min, 50 µM [9]: 2700
IL / Iw [9]: 233
Kp at 10 min, 50 µM [10]: 2010
IL / Iw [10]: 488

CCN1C(=S)O/C(=C\c2ccc(-c3ccc(OC)cc3OC)o2)C1=S [JL109, (Z)-5-((5-(2,4-dimethoxyphenyl)furan-2-yl)methylene)-3-ethyloxazolidine-2,4-dithione]
IC50 (HIV; [13]): 4.5 ± 4.8 nM
IC50 (NDV; [14]): 3.8 ± 3.9 nM
IC50 (HSV; [15]): 0.7 nM
Abs Max (λmax) [2]: 550 nm
AUC (400-750 nm) [2]: 178
1O2 QY 355 nm [3]: 0.37 ± 0.02
1O2 QY 532 nm [3]: 0.38 ± 0.02
kT × 10-7 [4]: 2.000 ± 0.100 M-1s-1
clinical observations [6, 16]: deaths occurred in the initial 3 animals
CC50 (in vitro): 8510 nM
MRT last (Pharmacokinetics in mice; female, Balb/c, mouse, in vivo): 4.5 to 10 h
Tmax (Pharmacokinetics in mice; female, Balb/c, mouse, in vivo): 0.25 to 1 h
AUC(0-t) (Pharmacokinetics in mice; [17]): 354 ng·h/mL
Cmax (Pharmacokinetics in mice; female, Balb/c, mouse, in vivo, 10 mg/kg, po 10 mg/kg): 88.2 ng/mL
AUC(0-t) (Pharmacokinetics in mice; [18]): 595 ng·h/mL
Cmax (Pharmacokinetics in mice; female, Balb/c, mouse, in vivo, 50 mg/kg, po 50 mg/kg): 127 ng/mL
AUC(0-t) (Pharmacokinetics in mice; [19]): 538 ng·h/mL
Cmax (Pharmacokinetics in mice; female, Balb/c, mouse, in vivo, 100 mg/kg, po 100 mg/kg): 78.2 ng/mL
